Laboratory results as given in US20050059726A1, “Pyrrolidine-2-ones as factor xa inhibitors” (priority 2001, published 2005).
pKi: −log10 of the molar value. Where a name gives a salt, the structure may show the parent alone.

Each compound was assayed against human Factor Xa (Homo sapiens, UniProt P00742) (assay: In vitro assay for inhibition of Factor Xa (2), fluorogenic assay). Conditions: substrate Rhodamine 110, bis-(CBZ-glycylglycyl-L-arginine amide 10 μM), Ki calculated from IC50.
Sequence of human Factor Xa (P00742 235-488 limits assumed): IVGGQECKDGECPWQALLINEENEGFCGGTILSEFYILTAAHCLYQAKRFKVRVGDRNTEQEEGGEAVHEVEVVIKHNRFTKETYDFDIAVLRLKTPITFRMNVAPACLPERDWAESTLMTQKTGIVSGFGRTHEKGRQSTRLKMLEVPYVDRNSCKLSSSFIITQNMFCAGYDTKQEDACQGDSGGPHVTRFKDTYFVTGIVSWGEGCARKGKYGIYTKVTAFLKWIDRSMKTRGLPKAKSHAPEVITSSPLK
Sequence of human Factor Xa (P00742 41-179 partner limits assumed): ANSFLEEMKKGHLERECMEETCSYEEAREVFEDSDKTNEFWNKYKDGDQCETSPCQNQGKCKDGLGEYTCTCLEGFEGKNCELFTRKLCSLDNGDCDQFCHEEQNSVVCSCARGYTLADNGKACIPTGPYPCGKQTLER
Format: biochemical
Description: In Vitro Assay for Inhibition of Factor Xa (2)
All other compounds of the present invention were tested for their Factor Xa inhibitory activity as determined in vitro by their ability to inhibit human Factor Xa in a fluorogenic assay, using Rhodamine 110, bis-(CBZ-glycylglycyl-L-arginine amide as the fluorogenic substrate. Compounds were diluted from a 10 mM stock solution in dimethylsulfoxide at appropriate concentrations. Assay was performed at room temperature using buffer consisting of: 50 mM Tris-HCl, 150 mM NaCl, 5 mM CaCl2, pH 7.4. containing human Factor Xa (final conc. Of 0.0003U.ml−1). Compound and enzyme were preincubated for 15 min prior to addition of the substrate (final conc. of 10 μM). The reaction was stopped after 3 hrs with the addition of H-D-PHE-PRO-ARG-Chloromethylketone. […] To obtain IC50 values the data were analysed using ActivityBase® and XLfit®.
Calculation of Ki values:
Ki=IC50/(1+[Substrate]/Km)
The Ki value for the above assay can be obtained by dividing the IC50 value by 1.6.
In the case of `CS(=O)(=O)c1ccccc1-c1ccc(N2CC[C@H](NS(=O)(=O)c3ccc(-c4ccc(Cl)s4)s3)C2=O)c(F)c1` [Example 8, 5′-Chloro-N-{(3S)-1-[3-fluoro-2′-(methylsulfonyl)-1,1′-biphenyl-4-yl]-2-oxopyrrolidin-3-yl}-2,2′-bithiophene-5-sulfonamide], the pKi was > 8.00. For `NCc1cccc(-c2ccc(N3CC[C@H](NS(=O)(=O)c4ccc5cc(Cl)ccc5c4)C3=O)c(F)c2)c1` [Example 64], the pKi was > 8.00. `O=C1[C@@H](NS(=O)(=O)c2ccc3cc(Cl)ccc3c2)CCN1c1ccc(-n2ccnc2)cc1F` [Example 122, 6-Chloro-N-{(3S)-1-[2-fluoro-4-(1H-imidazol-1-yl)phenyl]-2-oxopyrrolidin-3-yl}naphthalene-2-sulfonamide] was tested, and the pKi was > 8.00. In the case of `O=C1[C@@H](NS(=O)(=O)c2ccc(-c3ccc(Cl)s3)s2)CCN1c1ccc([N+](=O)[O-])cc1F` [Example 96, 5′-Chloro-N-[(3S)-1-(2-fluoro-4-nitrophenyl)-2-oxopyrrolidin-3-yl]-2,2′-bithiophene-5-sulfonamide], the pKi was > 7.70. In the case of `CC(C)N(C=O)c1ccc(N2CC[C@H](NS(=O)(=O)/C=C/c3ccc(Cl)s3)C2=O)c(F)c1` [Example 120, (E)-2-(5-Chlorothien-2-yl)-N-((3S)-1-{2-fluoro-4-[formyl(isopropyl)amino]phenyl}-2-oxopyrrolidin-3-yl)ethenesulfonamide], the pKi was > 8.00. In the case of `O=C1[C@@H](NS(=O)(=O)CCc2ccc(Cl)s2)CCN1c1ccc(I)cn1` [Example 132, 2-(5-Chlorothien-2-yl)-N-[(3S)-1-(5-iodopyridin-2-yl)-2-oxopyrrolidin-3-yl]ethane-1-sulfonamide], the pKi was > 7.70. With `CC(C)(C)OC(=O)CN([C@H]1CCN(c2ccc(-c3ccccc3S(C)(=O)=O)cc2F)C1=O)S(=O)(=O)/C=C/c1ccc(Cl)s1` [Example 47, tert-Butyl ({[(E)-2-(5-chlorothien-2-yl)ethenyl]sulfonyl}{(3S)-1-[3-fluoro-2′-(methylsulfonyl)-1,1′-biphenyl-4-yl]-2-oxopyrrolidin-3-yl}amino)acetate] the pKi was > 8.00. `N#Cc1ccccc1-c1ccc(N2CC[C@H](NS(=O)(=O)/C=C/c3ccc(Cl)s3)C2=O)nc1` [Example 26, (E)-2-(5-Chlorothien-2-yl)-N-{(3S)-1-[5-(2-cyanophenyl)pyridin-2yl]-2-oxopyrrolidin-3-yl}ethenesulfonamide] was tested, and the pKi was > 8.00. In the case of `O=C1[C@@H](NS(=O)(=O)/C=C/c2ccc(Cl)s2)CCN1c1ccc(-c2ccccc2C(F)(F)F)cn1` [Example 24, (E)-2-(5-Chlorothien-2-yl)-N-((3S)-2-oxo-1-{5-[2-(trifluoromethyl)phenyl]pyridin-2-yl}pyrrolidin-3yl)ethenesulfonamide], the pKi was > 8.00. In the case of `O=C1[C@@H](NS(=O)(=O)c2ccc3cc(Cl)ccc3c2)CCN1c1ccc(N2CCOCC2)c(F)c1` [Example 103, 6-Chloro-N-{(3S)-1-[3-fluoro-4-(4-morpholinyl)phenyl]-2-oxopyrrolidinyl}-2-naphthalenesulfonamide], the pKi was > 6.00. For `CS(=O)(=O)c1ccccc1-c1ccc(N2CC[C@H](NS(=O)(=O)c3cc4ccc(Cl)cc4o3)C2=O)c(F)c1` [Example 36, 6-Chloro-N-{(3S)-1-[3-fluoro-2′-(methylsulfonyl)-1,1′-biphenyl-4yl]-2-oxopyrrolidin-3-yl}-1-benzofuran-2-sulfonamide], the pKi was > 8.00. `O=Cc1ccsc1-c1ccc(N2CC[C@H](NS(=O)(=O)c3ccc4cc(Cl)ccc4c3)C2=O)c(F)c1` [Example 70, 6-Chloro-N-{(3S)-1-[2-fluoro-4-(3-formylthien-2-yl)phenyl]-2-oxopyrrolidin-3-yl}naphthalene-2-sulfonamide] was tested, and the pKi was > 7.70. For `CC(=O)c1ccc(N2CC[C@H](NS(=O)(=O)/C=C/c3ccc(Cl)s3)C2=O)cc1` [Example 138, (E)-N-[(3S)-1-(4-Acetylphenyl)-2-oxopyrrolidin-3-yl]-2-(5-chlorothien-2-yl)ethenesulfonamide], the pKi was > 6.70. In the case of `CS(=O)(=O)c1ccccc1-c1ccc(N2CC[C@H](NS(=O)(=O)c3cnc(-c4ccc(Cl)s4)s3)C2=O)c(F)c1` [Example 86, 2-(5-Chlorothien-2-yl)-N-{(3S)-1-[3-fluoro-2′-(methylsulfonyl)-1,1′-biphenyl-4-yl]-2-oxopyrrolidin-3-yl}-1,3-thiazole-5-sulfonamide], the pKi was > 7.70. In the case of `CS(=O)(=O)c1ccccc1-c1ccc(N2CC[C@H](NS(=O)(=O)/C=C/c3ccc(Cl)cc3)C2=O)c(F)c1` [Example 7, (E)-2-(4-Chlorophenyl)-N-{(3S)-1-[3-fluoro-2′-(methylsulfonyl)-1,1′-biphenyl-4-yl]-2-oxopyrrolidin-3-yl}ethenesulfonamide], the pKi was > 8.00. In the case of `CC(C)Oc1ccccc1-c1ccc(N2CC[C@H](NS(=O)(=O)/C=C/c3ccc(Cl)s3)C2=O)nc1` [Example 31, (E)-2-(5-Chlorothien-2-yl)-N-{(3S)-1-[5-(2-isopropoxyphenyl)pyridin-2-yl]-2-oxopyrrolidin-3-yl}ethenesulfonamide], the pKi was > 6.70. In the case of `CS(=O)(=O)c1ccccc1-c1ccc(N2CC[C@H](NS(=O)(=O)c3cc4sc(Cl)cc4s3)C2=O)c(F)c1` [Example 87, 5-Chloro-N-{(3S)-1-[3-fluoro-2′-(methylsulfonyl)-1,1′-biphenyl-4-yl]-2-oxopyrrolidin-3-yl}thieno[3.2-b]thiophene-2-sulfonamide], the pKi was > 8.00. In the case of `CS(=O)(=O)c1ccccc1-c1ccc(N2CC[C@H](NS(=O)(=O)c3cc4cc(Cl)ccc4o3)C2=O)c(F)c1` [Example 5, 5-Chloro-N-{(3S)-1-[3-fluoro-2′-(methylsulfonyl)-1,1′-biphenyl-4-yl]-2-oxopyrrolidin-3-yl}-1-benzofuran-2-sulfonamide], the pKi was > 8.00. For `COc1ncc(-c2ccc(N3CC[C@H](NS(=O)(=O)c4ccc5cc(Cl)ccc5c4)C3=O)c(F)c2)c(OC)n1` [Example 56, 6-Chloro-N-{(3S)-1-[4-(2,4-dimethoxypyrimidin-5-yl)-2-fluorophenyl]oxopyrrolidin-3-yl}naphthalene-2-sulfonamide], the pKi was > 6.70. For `CN(C)C(=O)c1ccc(N2CC[C@H](N(CC(N)=O)S(=O)(=O)/C=C/c3ccc(Cl)s3)C2=O)c(F)c1` [Example 134, 4-[(3S)-3-((2-Amino-2-oxoethyl){[(E)-2-(5-chlorothien-2-yl)ethenyl]sulfonyl}amino)-2-oxopyrrolidin-1-yl]-3-fluoro-N,N-dimethylbenzamide], the pKi was > 8.00. `CC(C)N(C)C(=O)c1ccc(N2CC[C@H](NS(=O)(=O)c3cc4ccc(Cl)cc4s3)C2=O)c(F)c1` [Example 111, 4-((3S)-3-{[(6-Chloro-1-benzothien-2-yl)sulfonyl]amino}-2-oxopyrrolidin-1-yl)-3-fluoro-N-isopropyl-N-methylbenzamide] was tested, and the pKi was > 6.00. With `CCC(=O)Nc1ccc(N2CC[C@H](NS(=O)(=O)c3cc4ccc(Cl)cc4s3)C2=O)c(F)c1` [Example 118, N-[4-((3S)-3-{[(6-Chloro-1-benzothien-2-yl)sulfonyl]amino}-2-oxopyrrolidinyl)-3-fluorophenyl]propanamide] the pKi was > 6.00. `CSc1ccc(-c2ccc(N3CC[C@H](NS(=O)(=O)c4ccc5cc(Cl)ccc5c4)C3=O)c(F)c2)cn1` [Example 60, 6-Chloro-N-((3S)-1-{2-fluoro-4-[6-(methylthio)pyridin-3-yl]phenyl}-2-oxopyrrolidin-3-yl)naphthalene-2-sulfonamide] was tested, and the pKi was > 6.70. `O=C1[C@@H](NS(=O)(=O)c2ccc3cc(Cl)ccc3c2)CCN1c1ccc(-c2ccccc2)cc1F` [Example 74, 6-Chloro-N-[(3S)-1-(3-fluoro-1,1′-biphenyl-4-yl)-2-oxopyrrolidin-3-yl]naphthalene-2-sulfonamide] was tested, and the pKi was > 6.70. `CS(=O)(=O)c1ccccc1-c1ccc(N2CC[C@H](NS(=O)(=O)c3cccc4cnccc34)C2=O)c(F)c1` [Example 6, N-{(3S)-1-[3-Fluoro-2′-(methylsulfonyl)-1,1′-biphenyl-4-yl]-2-oxopyrrolidin-3-yl}isoquinoline-5-sulfonamide] was tested, and the pKi was > 6.00. With `C/C(=C\S(=O)(=O)N[C@H]1CCN(c2ccc(-n3ccnc3C[N+](C)(C)CC(N)=O)cc2F)C1=O)c1ccc(Cl)s1` [Example 142, 2-Amino-N-[(1-{4-[(3S)-3-({[(1E)-2-(5-chlorothien-2-yl)prop-1-enyl]sulfonyl}amino)-2-oxopyrrolidin-1-yl]-3-fluorophenyl}-1H-imidazol-2-yl)methyl]-N,N-dimethyl-2-oxoethanaminium formate] the pKi was > 8.00. In the case of `O=C1[C@@H](NS(=O)(=O)c2ccc3cc(Cl)ccc3c2)CCN1c1ccc(-c2ccncc2)cc1F` [Example 55, 6-Chloro-N-[(3S)-1-(2-fluoro-4-pyridin-4-ylphenyl)-2-oxopyrrolidin-3-yl]naphthalene-2-sulfonamide], the pKi was > 8.00. For `CN(C)S(=O)(=O)c1ccccc1-c1ccc(N2CC[C@H](NS(=O)(=O)/C=C/c3ccc(Cl)s3)C2=O)nc1` [Example 28], the pKi was > 8.00. In the case of `CS(=O)(=O)c1ccccc1-c1ccc(N2CC[C@H](NS(=O)(=O)c3cc4cc(Cl)ccc4s3)C2=O)c(F)c1` [Example 12, 5-Chloro-N-{(3S)-1-[3-fluoro-2′-(methylsulfonyl)-1,1′-biphenyl-4-yl]-2-oxopyrrolidin-3yl}-1-benzothiophene-2-sulfonamide], the pKi was > 8.00. `C/C(=C\S(=O)(=O)N[C@H]1CCN(c2ccc(C(=O)N(C)C)cc2F)C1=O)c1ccc(Cl)s1` [Example 110, 4-[(3S)-3({[(1E)-2-(5-Chlorothien-2-yl)prop-1-enyl]sulfonyl}amino)-2-oxopyrrolidin-1-yl]-3-fluoro-N,N-dimethylbenzamide] was tested, and the pKi was > 8.00.
